Experimental data as given in patent publication US10238670B2, “9-aminomethyl minocycline compounds and methods of use thereof in urinary tract infection (UTI) treatment” (Paratek Pharmaceuticals, Inc., priority 2016, dated 2019).
Where two headings read alike, the source gives them in different places.

Tests used:
human plasma protein = conditions: cited from earlier work
K. oxytoca = test: In vitro MIC, 2010 surveillance isolates; type: cell-based
E. cloacae CeftazS = test: In vitro MIC, 2010 surveillance isolates; type: cell-based
E. faecium VNS = test: In vitro MIC, 2010 surveillance isolates; type: cell-based
MRSA = test: In vitro MIC, 2010 surveillance isolates; type: cell-based
E. coli ESBL− = test: In vitro MIC, 2010 surveillance isolates; type: cell-based, Escherichia coli
K. pneumoniae ESBL− = test: In vitro MIC, 2010 surveillance isolates; type: cell-based, Klebsiella pneumoniae
A. baumanii = test: In vitro MIC, 2010 surveillance isolates; type: cell-based; conditions: for % R (resistance): CLSI breakpoints
K. pneumoniae ESBL+ = test: In vitro MIC, 2010 surveillance isolates; type: cell-based, Klebsiella pneumoniae
E. coli ESBL+ = test: In vitro MIC, 2010 surveillance isolates; type: cell-based, Escherichia coli
E. cloacae CeftazR = test: In vitro MIC, 2010 surveillance isolates; type: cell-based
E. faecalis VNS = test: In vitro MIC, 2010 surveillance isolates; type: cell-based
MS CoNS = test: In vitro MIC, 2010 surveillance isolates; type: cell-based, Coagulase-Negative Staphylococcus
MSSA = test: In vitro MIC, 2010 surveillance isolates; type: cell-based
Enterobacter spp = test: In vitro MIC, 2010 surveillance isolates; type: cell-based
Acinetobacter spp = test: In vitro MIC, 2010 surveillance isolates; type: cell-based; conditions: for % R (resistance): CLSI breakpoints
E. faecium VS = test: In vitro MIC, 2010 surveillance isolates; type: cell-based
E. faecalis VS = test: In vitro MIC, 2010 surveillance isolates; type: cell-based
MR CoNS = test: In vitro MIC, 2010 surveillance isolates; type: cell-based, Coagulase-Negative Staphylococcus

Compound: CCCCCCCCCC(=O)N[C@@H](Cc1c[nH]c2ccccc12)C(=O)N[C@H](CC(N)=O)C(=O)N[C@@H](CC(=O)O)C(=O)N[C@@H]1C(=O)NCC(=O)N[C@@H](CCCN)C(=O)N[C@@H](CC(=O)O)C(=O)N[C@H](C)C(=O)N[C@@H](CC(=O)O)C(=O)NCC(=O)N[C@H](CO)C(=O)N[C@@H]([C@H](C)CC(=O)O)C(=O)N[C@@H](CC(=O)c2ccccc2N)C(=O)O[C@@H]1C [Daptomycin]
- protein bound in human plasma (human plasma protein): > 75%

Compound: CC(=O)NC[C@H]1CN(c2ccc(N3CCOCC3)c(F)c2)C(=O)O1 [Linezolid]
- protein bound in human plasma (human plasma protein; human, plasma): 31%

Compound: CN(C)c1ccc(O)c2c1C[C@H]1C[C@H]3[C@H](N(C)C)C(O)=C(C(N)=O)C(=O)[C@@]3(O)C(O)=C1C2=O [Minocycline]
- human plasma protein binding, Mean (human plasma protein; human, plasma): 76%

Compound: Nc1nc(-n2cc(C(=O)O)c(=O)c3cc(F)c(N4CC(O)C4)c(Cl)c32)c(F)cc1F [delafloxacin]
- protein bound in human plasma (human plasma protein): > 75%

Compound: Cn1nnc(-c2ccc(-c3ccc(N4C[C@H](CO)OC4=O)cc3F)cn2)n1 [tedizolid]
- protein bound in human plasma (human plasma protein): > 75%

Compound: piperacillin-tazobactam [Pip/tazo]
- % R (resistance) (K. oxytoca; Asia/Pac, Eucast breakpoints): 17.6%
- MIC90 (K. oxytoca; Asia/Pac, N=17): 64 µg/mL
- % R (resistance) (K. oxytoca; Europe, Eucast breakpoints): 13.3%
- MIC90 (K. oxytoca; Europe, N=158): > 64 µg/mL
- % R (resistance) (K. oxytoca; L. Amer, CLSI breakpoints): 16%
- MIC90 (K. oxytoca; L. Amer, N=25): > 64 µg/mL
- % R (resistance) (K. oxytoca; N America, CLSI breakpoints): 7.9%
- MIC90 (K. oxytoca; N America, N=177): 16 µg/mL
- % R (resistance) (E. cloacae CeftazS; Asia/Pac, Eucast breakpoints): 1%
- MIC90 (E. cloacae CeftazS; Asia/Pac, N=100): 4 µg/mL
- % R (resistance) (E. cloacae CeftazS; Europe, Eucast breakpoints): 1.1%
- MIC90 (E. cloacae CeftazS; Europe, N=183): 4 µg/mL
- % R (resistance) (E. cloacae CeftazS; L. Amer, CLSI breakpoints): 3.5%
- MIC90 (E. cloacae CeftazS; L. Amer, N=57): 16 µg/mL
- % R (resistance) (E. cloacae CeftazS; N America, CLSI breakpoints): 0.5%
- MIC90 (E. cloacae CeftazS; N America, N=210): 4 µg/mL
- MIC90 (E. faecium VNS; Asia/Pac, N=24): > 64 µg/mL
- MIC90 (E. faecium VNS; Europe, N=71): > 64 µg/mL
- MIC90 (E. faecium VNS; L. Amer, N=41): > 64 µg/mL
- MIC90 (E. faecium VNS; N America, N=478): > 64 µg/mL
- % R (resistance) (MRSA; Asia/Pac, Eucast breakpoints): 100%
- MIC90 (MRSA; Asia/Pac, N=428): > 64 µg/mL
- % R (resistance) (MRSA; Europe, Eucast breakpoints): 100%
- MIC90 (MRSA; Europe, N=750): > 64 µg/mL
- % R (resistance) (MRSA; L. Amer, CLSI breakpoints): 100%
- MIC90 (MRSA; L. Amer, N=506): > 64 µg/mL
- % R (resistance) (MRSA; N America, CLSI breakpoints): 100%
- MIC90 (MRSA; N America, N=2508): 64 µg/mL
- % R (resistance) (E. coli ESBL−; Asia/Pac, Eucast breakpoints): 2.5%
- MIC90 (E. coli ESBL−; Asia/Pac, N=282): 4 µg/mL
- % R (resistance) (E. coli ESBL−; Europe, Eucast breakpoints): 5.3%
- MIC90 (E. coli ESBL−; Europe, N=1533): 4 µg/mL
- % R (resistance) (E. coli ESBL−; L. Amer, CLSI breakpoints): 1.5%
- MIC90 (E. coli ESBL−; L. Amer, N=389): 4 µg/mL
- % R (resistance) (E. coli ESBL−; N America, CLSI breakpoints): 0.9%
- MIC90 (E. coli ESBL−; N America, N=1172): 4 µg/mL
- % R (resistance) (K. pneumoniae ESBL−; Asia/Pac, Eucast breakpoints): 2.1%
- MIC90 (K. pneumoniae ESBL−; Asia/Pac, N=189): 8 µg/mL
- % R (resistance) (K. pneumoniae ESBL−; Europe, Eucast breakpoints): 0%
- MIC90 (K. pneumoniae ESBL−; Europe, N=361): 8 µg/mL
- % R (resistance) (K. pneumoniae ESBL−; L. Amer, CLSI breakpoints): 1.9%
- MIC90 (K. pneumoniae ESBL−; L. Amer, N=160): 4 µg/mL
- % R (resistance) (K. pneumoniae ESBL−; N America, CLSI breakpoints): 0.7%
- MIC90 (K. pneumoniae ESBL−; N America, N=671): 8 µg/mL
- MIC90 (A. baumanii; Asia/Pac, N=275): > 64 µg/mL
- MIC90 (A. baumanii; Europe, N=145): > 64 µg/mL
- % R (resistance) (A. baumanii; L. Amer): 88.7%
- MIC90 (A. baumanii; L. Amer, N=275): > 64 µg/mL
- % R (resistance) (A. baumanii; N America): 70.1%
- MIC90 (A. baumanii; N America, N=154): > 64 µg/mL
- % R (resistance) (K. pneumoniae ESBL+; Asia/Pac, Eucast breakpoints): 47.6%
- MIC90 (K. pneumoniae ESBL+; Asia/Pac, N=124): > 64 µg/mL
- % R (resistance) (K. pneumoniae ESBL+; Europe, Eucast breakpoints): 57%
- MIC90 (K. pneumoniae ESBL+; Europe, N=151): > 64 µg/mL
- % R (resistance) (K. pneumoniae ESBL+; L. Amer, CLSI breakpoints): 51.7%
- MIC90 (K. pneumoniae ESBL+; L. Amer, N=209): > 64 µg/mL
- % R (resistance) (K. pneumoniae ESBL+; N America, CLSI breakpoints): 51.9%
- MIC90 (K. pneumoniae ESBL+; N America, N=108): > 64 µg/mL
- % R (resistance) (E. coli ESBL+; Asia/Pac, Eucast breakpoints): 7.3%
- MIC90 (E. coli ESBL+; Asia/Pac, N=219): 16 µg/mL
- % R (resistance) (E. coli ESBL+; Europe, Eucast breakpoints): 24.1%
- MIC90 (E. coli ESBL+; Europe, N=274): > 64 µg/mL
- % R (resistance) (E. coli ESBL+; L. Amer, CLSI breakpoints): 7.7%
- MIC90 (E. coli ESBL+; L. Amer, N=168): 64 µg/mL
- % R (resistance) (E. coli ESBL+; N America, CLSI breakpoints): 6%
- MIC90 (E. coli ESBL+; N America, N=134): 64 µg/mL
- % R (resistance) (E. cloacae CeftazR; Asia/Pac, Eucast breakpoints): 55.6%
- MIC90 (E. cloacae CeftazR; Asia/Pac, N=63): > 64 µg/mL
- % R (resistance) (E. cloacae CeftazR; Europe, Eucast breakpoints): 62.5%
- MIC90 (E. cloacae CeftazR; Europe, N=72): > 64 µg/mL
- % R (resistance) (E. cloacae CeftazR; L. Amer, CLSI breakpoints): 23.8%
- MIC90 (E. cloacae CeftazR; L. Amer, N=42): > 64 µg/mL
- % R (resistance) (E. cloacae CeftazR; N America, CLSI breakpoints): 48.1%
- MIC90 (E. cloacae CeftazR; N America, N=77): > 64 µg/mL
- range of MICs (N <10, shown instead of MIC90) (E. faecalis VNS; Asia/Pac, N=1): 8
- % R (resistance) (E. faecalis VNS; Europe, Eucast breakpoints): 0%
- range of MICs (N <10, shown instead of MIC90) (E. faecalis VNS; Europe, N=8): 4-16
- % R (resistance) (E. faecalis VNS; L. Amer, CLSI breakpoints): 0%
- range of MICs (N <10, shown instead of MIC90) (E. faecalis VNS; L. Amer, N=7): 4-8
- % R (resistance) (E. faecalis VNS; N America, CLSI breakpoints): 0%
- MIC90 (E. faecalis VNS; N America, N=38): 8 µg/mL
- % R (resistance) (MS CoNS; Asia/Pac, Eucast breakpoints): 0%
- MIC90 (MS CoNS; Asia/Pac, N=18): 1 µg/mL
- % R (resistance) (MS CoNS; Europe, Eucast breakpoints): 0%
- MIC90 (MS CoNS; Europe, N=185): ≤ 0.5 µg/mL
- % R (resistance) (MS CoNS; L. Amer, CLSI breakpoints): 0%
- MIC90 (MS CoNS; L. Amer, N=67): 1 µg/mL
- % R (resistance) (MS CoNS; N America, CLSI breakpoints): 0%
- MIC90 (MS CoNS; N America, N=191): ≤ 0.5 µg/mL
- % R (resistance) (MSSA; Asia/Pac, Eucast breakpoints): 0%
- MIC90 (MSSA; Asia/Pac, N=641): 2 µg/mL
- % R (resistance) (MSSA; Europe, Eucast breakpoints): 0%
- MIC90 (MSSA; Europe, N=2109): 2 µg/mL
- % R (resistance) (MSSA; L. Amer, CLSI breakpoints): 0.2%
- MIC90 (MSSA; L. Amer, N=590): 2 µg/mL
- % R (resistance) (MSSA; N America, CLSI breakpoints): 0.1%
- MIC90 (MSSA; N America, N=2373): 2 µg/mL
- % R (resistance) (Enterobacter spp; Asia/Pac, Eucast breakpoints): 19.2%
- MIC90 (Enterobacter spp; Asia/Pac, N=52): 32 µg/mL
- % R (resistance) (Enterobacter spp; Europe, Eucast breakpoints): 32.9%
- MIC90 (Enterobacter spp; Europe, N=82): 64 µg/mL
- % R (resistance) (Enterobacter spp; L. Amer, CLSI breakpoints): 7.1%
- MIC90 (Enterobacter spp; L. Amer, N=42): 64 µg/mL
- % R (resistance) (Enterobacter spp; N America, CLSI breakpoints): 4%
- MIC90 (Enterobacter spp; N America, N=101): 64 µg/mL
- MIC90 (Acinetobacter spp; Europe, N=43): > 64 µg/mL
- % R (resistance) (Acinetobacter spp; L. Amer): 55.6%
- % R (resistance) (Acinetobacter spp; N America): 19%
- MIC90 (Acinetobacter spp; N America, N=42): > 64 µg/mL
- MIC90 (E. faecium VS; Asia/Pac, N=106): > 64 µg/mL
- MIC90 (E. faecium VS; Europe, N=303): > 64 µg/mL
- MIC90 (E. faecium VS; L. Amer, N=51): > 64 µg/mL
- MIC90 (E. faecium VS; N America, N=115): > 64 µg/mL
- % R (resistance) (E. faecalis VS; Asia/Pac, Eucast breakpoints): 0%
- MIC90 (E. faecalis VS; Asia/Pac, N=214): 8 µg/mL
- % R (resistance) (E. faecalis VS; Europe, Eucast breakpoints): 0%
- MIC90 (E. faecalis VS; Europe, N=669): 8 µg/mL
- % R (resistance) (E. faecalis VS; L. Amer, CLSI breakpoints): 0%
- MIC90 (E. faecalis VS; L. Amer, N=290): 8 µg/mL
- % R (resistance) (E. faecalis VS; N America, CLSI breakpoints): 0%
- MIC90 (E. faecalis VS; N America, N=863): 8 µg/mL
- % R (resistance) (MR CoNS; Asia/Pac, Eucast breakpoints): 100%
- MIC90 (MR CoNS; Asia/Pac, N=77): > 64 µg/mL
- % R (resistance) (MR CoNS; Europe, Eucast breakpoints): 100%
- MIC90 (MR CoNS; Europe, N=510): > 64 µg/mL
- % R (resistance) (MR CoNS; L. Amer, CLSI breakpoints): 100%
- MIC90 (MR CoNS; L. Amer, N=301): > 64 µg/mL
- % R (resistance) (MR CoNS; N America, CLSI breakpoints): 100%
- MIC90 (MR CoNS; N America, N=461): 16 µg/mL
